Experimental data reported in US20090275648A1, “MACROCYCLIC GHRELIN RECEPTOR ANTAGONISTS AND INVERSE AGONISTS AND METHODS OF USING THE SAME” (priority 2005, published 2009).

Target: ghrelin receptor (Homo sapiens, UniProt Q92847)
Test: Aequorin functional assay (ghrelin receptor), Example 3
Type: cell-based
Parameters: host or cells: CHO-K1 cells co-expressing Gα16 and mitochondrially targeted Aequorin
Conditions: antagonist testing vs ghrelin at EC80 (3.7 nM)
Source text: The functional activity of compounds of the invention found to bind to the GHS-R1a receptor can be determined using the method described below. (LePoul, E.; et al. Adaptation of aequorin functional assay to high throughput screening. J. Biomol. Screen. 2002, 7, 57-65; Bednarek, M. A.; et al. Structure-function studies on the new growth hormone-releasing peptide ghrelin: minimal sequence of ghrelin necessary for activation of growth hormone secretagogue receptor 1a. J. Med. Chem. 2000, 43, 4370-4376; Palucki, B. L.; et al. Spiro(indoline-3,4′-piperidine) growth hormone secretagogues as ghrelin mimetics. Bioorg. Med. Chem. Lett. 2001, 11, 1955-1957).
Membranes were prepared using AequoScreen™ (EUROSCREEN, Belgium) cell lines expressing the human ghrelin receptor (cell line ES-410-A; receptor accession #60179). This cell line is constructed by transfection of the human ghrelin receptor into CHO-K1 cells co-expressing Gα16 and the mitochondrially targeted Aequorin (Ref #ES-WT-A5). • 1. Ghrelin (reference agonist; Bachem, #H-4864) • 2. Assay buffer: DMEM (Dulbecco's Modified Eagles Medium) containing 0.1% BSA (bovine serum albumin; pH 7.0. • 3. Coelenterazine (Molecular Probes, Leiden, The Netherlands)
Stock solutions of compounds (10 mM in 100% DMSO) were provided frozen on dry ice and stored at −20° C. prior to use. From the stock solution, mother solutions were made at a concentration of 500 μM 20-fold dilution in 26% DMSO. Assay plates were then prepared by appropriate dilution in DMEM medium containing 0.1% BSA. Under these conditions, the maximal final DMSO concentration in the assay was <0.6%.
AequoScreen™ cells were collected from culture plates with Ca^2+ and Mg^2+-free phosphate buffered saline (PBS) supplemented with 5 mM EDTA, pelleted for 2 minutes at 1000×g, re-suspended in DMEM-Ham's F12 containing 0.1% BSA at a density of 5×10^6 cells/ml and incubated overnight at room temperature in the presence of 5 μM coelenterazine. After loading, cells were diluted with assay buffer to a concentration of 5×10^5 cells/ml.
For agonist testing, 50 μl of the cell suspension was mixed with 50 μl of the appropriate concentration of test compound or ghrelin (reference agonist) in 96-well plates (duplicate samples). Ghrelin (reference agonist) is tested at several concentrations concurrently with the test compounds in order to validate the experiment. The emission of light resulting from receptor activation in response to ghrelin or test compounds was recorded using the Hamamatsu FDSS 6000 reader (Hamamatsu Photonics K.K., Japan).
For antagonist testing, an approximate EC80 concentration of ghrelin (i.e. 3.7 nM; 100 μL) was injected onto the cell suspension containing the test compounds (duplicate samples) 15-30 minutes after the end of agonist testing and the consequent emission of light resulting from receptor activation was measured as described in the paragraph above.
Results are expressed as Relative Light Units (RLU). […] For agonist testing, results for each concentration of test compound were expressed as percent activation relative to the signal induced by ghrelin at a concentration equal to the EC80 (i.e. 3.7 nM). EC50, Hill slope and % Emax values are reported.
For antagonist testing, results for each concentration of test compound were expressed as percent inhibition relative to the signal induced by ghrelin at a concentration equal to the EC80.

ghrelin receptor, sequence (Q92847 whole entry): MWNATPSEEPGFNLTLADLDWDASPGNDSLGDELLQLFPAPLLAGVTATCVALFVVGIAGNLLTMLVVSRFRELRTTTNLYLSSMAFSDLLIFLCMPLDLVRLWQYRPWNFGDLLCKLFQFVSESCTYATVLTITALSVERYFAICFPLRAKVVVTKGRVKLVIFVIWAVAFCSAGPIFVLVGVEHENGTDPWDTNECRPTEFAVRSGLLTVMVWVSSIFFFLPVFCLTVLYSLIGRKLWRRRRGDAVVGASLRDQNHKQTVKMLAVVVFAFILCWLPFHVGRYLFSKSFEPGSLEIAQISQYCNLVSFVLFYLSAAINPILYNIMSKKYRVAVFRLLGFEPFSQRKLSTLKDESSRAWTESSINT

Compound: CCC(C)[C@@H]1NCCOc2ccccc2/C=C/CNC(=O)[C@@H](Cc2ccccc2)NC(=O)[C@H](C(C)O)N(C)C1=O (stereo partly shown) [Compound 502]
- IC50: 0.001 to 0.1 µM
